{"source": "patent US8420811B2", "about": "“Tetrahydroisoquinolines and intermediates therefor” (Bristol-Myers Squibb Company, priority 2008, dated 2013)", "format_in_all_cases": "physicochemical", "key": {"[1]": {"assay": "pH-Solubility profile (aqueous solubility)", "conditions": "for solubility: aqueous solution, aqueous buffer"}, "[2]": {"assay": "Solubility profile (USP definition) in solvents"}, "pKa": {"assay": "pKa"}, "Distribution coefficient": {"assay": "Distribution coefficient"}, "Solution pH": {"assay": "Solution pH", "conditions": "at about 1 μg/mL concentration in water"}}}
{"compound": "CN1Cc2cc(-c3ccc(N)nn3)ccc2[C@H](c2ccc3ccccc3c2)C1", "note": "[Compound 2, (S)-6-(2-methyl-4-(naphthalen-2-yl)-1,2,3,4-tetrahydroisoquinolin-7-yl)pyridazin-3-amine]", "values": [{"measurement": "solubility", "setting": "[1]; at pH 2.0", "result": 15600, "unit": "µg/mL"}, {"measurement": "solubility", "setting": "[1]; at pH 4.4", "result": 1760, "unit": "µg/mL"}, {"measurement": "solubility", "setting": "[1]; at solution pH 6.5 and above", "result": "≤ 1", "unit": "µg/mL"}]}
{"compound": "CN1Cc2cc(-c3ccc(N)nn3)ccc2[C@H](c2ccc3ccccc3c2)C1", "note": "[Form N-1, 6-[(4S)-1,2,3,4-tetrahydro-2-methyl-4-(2-naphthalenyl)-7-isoquinolinyl]-3-pyridazinamine]", "values": [{"measurement": "aqueous solubility (in words)", "setting": "[1]; general statement, no pH given", "result": "high aqueous solubility"}, {"measurement": "Solubility profile (USP definition)", "setting": "[2]; N,N-dimethylacetamide", "result": "soluble: N,N-dimethylacetamide, dimethylsulfoxide"}, {"measurement": "Solubility profile (USP definition)", "setting": "[2]; PEG 400", "result": "sparingly soluble: PEG 400"}, {"measurement": "Solubility profile (USP definition)", "setting": "[2]; acetone", "result": "slightly soluble: isopropanol, acetone, ethanol, methanol"}, {"measurement": "Solubility profile (USP definition)", "setting": "[2]; acetonitrile", "result": "very slightly soluble: acetonitrile, ethyl acetate, n-butanol"}, {"measurement": "Solubility profile (USP definition)", "setting": "[2]; dichloromethane", "result": "slightly soluble: isopropanol, acetone, ethanol, methanol"}, {"measurement": "Solubility profile (USP definition)", "setting": "[2]; dimethylsulfoxide", "result": "soluble: N,N-dimethylacetamide, dimethylsulfoxide"}, {"measurement": "Solubility profile (USP definition)", "setting": "[2]; ethanol", "result": "slightly soluble: isopropanol, acetone, ethanol, methanol"}, {"measurement": "Solubility profile (USP definition)", "setting": "[2]; ethyl acetate", "result": "very slightly soluble: acetonitrile, ethyl acetate, n-butanol"}, {"measurement": "Solubility profile (USP definition)", "setting": "[2]; isopropanol", "result": "slightly soluble: isopropanol, acetone, ethanol, methanol"}, {"measurement": "Solubility profile (USP definition)", "setting": "[2]; methanol", "result": "slightly soluble: isopropanol, acetone, ethanol, methanol"}, {"measurement": "Solubility profile (USP definition)", "setting": "[2]; n-butanol", "result": "very slightly soluble: acetonitrile, ethyl acetate, n-butanol"}, {"measurement": "Solubility profile (USP definition)", "setting": "[2]; n-heptane", "result": "practically insoluble: n-heptane"}, {"measurement": "Solubility profile (USP definition)", "setting": "[2]; propylene glycol", "result": "slightly soluble: isopropanol, acetone, ethanol, methanol"}, {"measurement": "Solubility profile (USP definition)", "setting": "[2]; tetrahydrofuran", "result": "freely soluble: tetrahydrofuran"}, {"measurement": "pKa", "setting": "pKa; first of two printed pKa values", "result": 4.9}, {"measurement": "pKa", "setting": "pKa; second of two printed pKa values", "result": 7.8}, {"measurement": "Distribution coefficient Log Do/b", "setting": "Distribution coefficient; at pH 6.5", "result": 3.10}, {"measurement": "Distribution coefficient Log Do/b", "setting": "Distribution coefficient; at pH 7.4", "result": 3.82}, {"measurement": "Solution pH", "setting": "Solution pH", "result": "~7.0 at about 1 μg/mL concentration in water"}]}
